From BindingDB's records for patent US20240043440 (Case Western Reserve University, 2024)

target: T1, 15-hydroxyprostaglandin dehydrogenase [NAD(+)] (Homo sapiens, UniProt P15428); assay: In vitro Assay (5 nM)
T1 sequence (P15428 whole entry): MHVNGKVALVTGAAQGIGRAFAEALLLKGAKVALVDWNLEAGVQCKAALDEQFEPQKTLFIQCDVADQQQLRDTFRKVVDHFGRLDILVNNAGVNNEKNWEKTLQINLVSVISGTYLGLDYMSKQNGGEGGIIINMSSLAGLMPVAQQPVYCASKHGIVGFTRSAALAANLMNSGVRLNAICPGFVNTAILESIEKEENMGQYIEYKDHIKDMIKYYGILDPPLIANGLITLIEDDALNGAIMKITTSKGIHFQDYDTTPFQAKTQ
Description: Each compound for inhibiting enzymatic activity of recombinant 15-PGDH (5 nM) in an in vitro assay.

IC50 [nM] | Structure (SMILES)
3.2 | CCCC[S+]([O-])c1sc2nc(-c3cncnc3)cc(-c3ccccc3)c2c1N (configuration not stated) [US20240043440, Example 20]
3.7 | CCCC[S+]([O-])c1sc2nc(-c3nccs3)nc(-c3cnc(C)n3C)c2c1N (configuration not stated) [US20240043440, Example 15]
4 | CCCC[S+]([O-])c1sc2nc(-c3cnc(N)nc3)cc(-c3ccccc3)c2c1N (configuration not stated) [US20240043440, Example 21]
24.7 | CCCC[S+]([O-])c1cc2c(-c3ccccc3)cc(-c3cccs3)nc2s1 (configuration not stated) [US20240043440, Example 11]
2.4 | CCCC[S+]([O-])c1sc2nc(-c3cccnc3)cc(-c3ccccc3)c2c1N (configuration not stated) [US20240043440, Example 19]
20 | CCCC[S+]([O-])c1sc2nc(-c3nccs3)nc(-c3cccnc3)c2c1N (configuration not stated) [US20240043440, Example 26]
221 | CCCC[S@+]([O-])c1sc2nc(-c3nccs3)cc(-c3nccn3CC)c2c1N [US20240043440, Example 30]
3 | CCCC[S+]([O-])c1sc2nc(-c3cnn(C)c3)cc(-c3ccccc3)c2c1N (configuration not stated) [US20240043440, Example 24]
4 | CCCC[S+]([O-])c1sc2nc(-c3ccc(F)nc3)cc(-c3ccccc3)c2c1N (configuration not stated) [US20240043440, Example 22]
7.1 | CCCC[S+]([O-])c1sc2nc(-c3cccs3)cc(-c3ccccc3)c2c1C (configuration not stated) [US20240043440, Example 10]
1.6 | CCCC[S+]([O-])c1sc2nc(-c3ccccc3)cnc2c1N (configuration not stated) [US20240043440, Example 27]

target: T1, 15-hydroxyprostaglandin dehydrogenase [NAD(+)]; assay: In vitro Assay (1 nM)
Description: Each compound for inhibiting enzymatic activity of recombinant 15-PGDH (1 nM) in an in vitro assay.

IC50 [nM] | Structure (SMILES)
1.4 | CCCC[S+]([O-])c1sc2nc(-c3cnc(NC)nc3)cc(-c3ccccc3)c2c1N (configuration not stated) [US20240043440, Example 60]
1.6 | Cn1cncc1-c1cc(-c2nccs2)nc2sc([S+]([O-])C3CCCC3)c(N)c12 (configuration not stated) [US20240043440, Example 32]
0.98 | CCCC[S+]([O-])c1sc2nc(-c3cccnc3)cc(-c3ccncc3)c2c1N (configuration not stated) [US20240043440, Example 71]
3.6 | Cc1ncc(-c2cc(-c3nccs3)nc3sc([S+]([O-])CC(C)C)c(N)c23)n1C (configuration not stated) [US20240043440, Example 35]
1.3 | COCCC[S+]([O-])c1sc2nc(-c3cccnc3)cc(-c3cn(C)cn3)c2c1N (configuration not stated) [US20240043440, Example 89]
2.4 | CCCC[S+]([O-])c1sc2nc(-c3ccccn3)cc(-c3cnc(C)n3C)c2c1N (configuration not stated) [US20240043440, Example 40]
1.8 | COCC[S+]([O-])c1sc2nc(-c3cccnc3)cc(-c3cncn3C)c2c1N (configuration not stated) [US20240043440, Example 49]
3.1 | CCOCC[S+]([O-])c1sc2nc(-c3nccs3)cc(-c3cnc(C)n3C)c2c1N (configuration not stated) [US20240043440, Example 34]
1.7 | CCCC[S+]([O-])c1sc2nc(-c3cnc(N(C)C)nc3)cc(-c3ccccc3)c2c1N (configuration not stated) [US20240043440, Example 63]
1.3 | CCCC[S+]([O-])c1sc2nc(-c3cncnc3)nc(-c3ccccc3)c2c1N (configuration not stated) [US20240043440, Example 83]
1.1 | CCCC[S+]([O-])c1sc2nc(-c3ccncn3)cc(-c3ccccc3)c2c1N (configuration not stated) [US20240043440, Example 47]
1.5 | COCC[S+]([O-])c1sc2nc(-c3nccs3)cc(-c3cncn3C)c2c1N (configuration not stated) [US20240043440, Example 36]
1.1 | CCCC[S+]([O-])c1sc2nc(-c3cnc(N)nc3)cc(-c3nccs3)c2c1N (configuration not stated) [US20240043440, Example 69]
0.56 | CCCC[S@@+]([O-])c1sc2nc(-c3cccnc3)nc(-c3nccn3C)c2c1N [US20240043440, Example 86A]
2.8 | CCCC[S+]([O-])c1sc2nc(-c3cnn(C)c3)cnc2c1N (configuration not stated) [US20240043440, Example 75]
1.5 | COCC[S+]([O-])c1sc2nc(-c3cccnc3)nc(-c3ccccc3)c2c1N (configuration not stated) [US20240043440, Example 79]
12 | CCCC[S+]([O-])c1sc2nc(-c3ncccn3)nc(-c3ccccc3)c2c1N (configuration not stated) [US20240043440, Example 80]
1.1 | COCCC[S+]([O-])c1sc2nc(-c3cnc(N)nc3)cc(-c3ccccc3)c2c1N (configuration not stated) [US20240043440, Example 65]
1.2 | CCCC[S+]([O-])c1sc2nc(-c3cccnc3)nc(-c3ccccc3)c2c1N (configuration not stated) [US20240043440, Example 74]

IC50 [nM] | Structure (SMILES)
0.93 | CCCC[S+]([O-])c1sc2nc(-c3cnc(N)nc3)cc(-c3cnc(C)n3C)c2c1N (configuration not stated) [US20240043440, Example 72]
1.1 | CCCC[S+]([O-])c1sc2nc(-c3cccnc3)cc(-c3cccc(C#N)c3)c2c1N (configuration not stated) [US20240043440, Example 57]
0.88 | COCCC[S+]([O-])c1sc2nc(-c3cnco3)cc(-c3ccccc3)c2c1N (configuration not stated) [US20240043440, Example 70]
1.4 | CCCC[S+]([O-])c1sc2nc(-c3cccnc3)cc(-c3cnc(C)n3C)c2c1N (configuration not stated) [US20240043440, Example 38]
1 | CCCC[S+]([O-])c1sc2nc(-c3cccnc3)cc(-c3ccccc3F)c2c1N (configuration not stated) [US20240043440, Example 55]
2.5 | COCCC[S+]([O-])c1sc2nc(-c3ccc(N)nc3)cc(-c3cccnc3)c2c1N (configuration not stated) [US20240043440, Example 90]
1.5 | CCCC[S+]([O-])c1sc2nc(-c3ccc(N)nc3)cc(-c3ccccc3)c2c1N (configuration not stated) [US20240043440, Example 62]
1.7 | CCCC[S+]([O-])c1sc2nc(-c3ncccn3)cc(-c3ccccc3)c2c1N (configuration not stated) [US20240043440, Example 44]
1.1 | CCCC[S+]([O-])c1sc2nc(-c3cnc(N)nc3)cc(-c3ccc(F)cc3)c2c1N (configuration not stated) [US20240043440, Example 61]
1 | COCCC[S@@+]([O-])c1sc2nc(-c3cccnc3)nc(-c3ccccc3)c2c1N [US20240043440, Example 78-A]
1.4 | COCCC[S+]([O-])c1sc2nc(-c3cnn(C)c3)cc(-c3ccccc3)c2c1N (configuration not stated) [US20240043440, Example 66]
1.8 | CCOCC[S+]([O-])c1sc2nc(-c3nccs3)cc(-c3cncn3C)c2c1N (configuration not stated) [US20240043440, Example 31]
0.91 | CCCC[S+]([O-])c1sc2nc(-c3cccnc3)cc(-c3ccc(C#N)cc3)c2c1N (configuration not stated) [US20240043440, Example 59]
1.3 | CCCC[S+]([O-])c1sc2nc(-c3cccnc3)nc(-c3cn(C)cn3)c2c1N (configuration not stated) [US20240043440, Example 85]
3.6 | CCCC[S+]([O-])c1sc2nc(-c3ccccn3)nc(-c3ccccc3)c2c1N (configuration not stated) [US20240043440, Example 76]
1.2 | CCCC[S+]([O-])c1sc2nc(-c3cccnc3)cc(-c3ccccn3)c2c1N (configuration not stated) [US20240043440, Example 58]
1.1 | CCCC[S+]([O-])c1sc2nc(-c3cccnc3)cc(-c3cncn3C)c2c1N (configuration not stated) [US20240043440, Example 43]
2.2 | CCCC[S+]([O-])c1sc2nc(-c3cnccc3C)cc(-c3cnc(C)n3C)c2c1N (configuration not stated) [US20240043440, Example 56]
1.4 | COCCC[S+]([O-])c1sc2nc(-c3cccnc3)cc(-c3cncn3C)c2c1N (configuration not stated) [US20240043440, Example 50]

IC50 [nM] | Structure (SMILES)
1 | COCC[S@@+]([O-])c1sc2nc(-c3cccnc3)nc(-c3ccccc3)c2c1N [US20240043440, Example 79-A]
1.8 | COCCC[S+]([O-])c1sc2nc(-c3nccs3)cc(-c3cncn3C)c2c1N (configuration not stated) [US20240043440, Example 37]
1.8 | CCCC[S+]([O-])c1sc2nc(-c3nccs3)nc(-c3nccn3C)c2c1N (configuration not stated) [US20240043440, Example 77]
0.76 | CCCC[S+]([O-])c1sc2nc(-c3cccnc3)nc(-c3cscn3)c2c1N (configuration not stated) [US20240043440, Example 81]
2.4 | COCC[S+]([O-])c1sc2nc(-c3ccc(C4COC4)nc3)cc(-c3ccc(F)cc3)c2c1N (configuration not stated) [US20240043440, Example 91]
41 | CCCC[S@+]([O-])c1sc2nc(-c3cccnc3)nc(-c3nccn3C)c2c1N [US20240043440, Example 86B]
2.6 | CCCC[S+]([O-])c1sc2nc(-c3cncnc3)cc(-c3cnc(C4CC4)n3C)c2c1N (configuration not stated) [US20240043440, Example 53]
1.4 | COCCC[S+]([O-])c1sc2nc(-c3cccnc3)nc(-c3ccccc3)c2c1N (configuration not stated) [US20240043440, Example 78]
1 | CCCC[S+]([O-])c1sc2nc(-c3cccnc3)cc(-c3ncsc3C)c2c1N (configuration not stated) [US20240043440, Example 73]
1 | CCCC[S+]([O-])c1sc2nc(-c3cccnc3)nc(-c3nccs3)c2c1N (configuration not stated) [US20240043440, Example 82]
1 | CCCC[S+]([O-])c1sc2nc(-c3cccnc3)cc(-c3nccs3)c2c1N (configuration not stated) [US20240043440, Example 51]
2.2 | CCCC[S+]([O-])c1sc2nc(-c3ncccc3F)cc(-c3cnc(C)n3C)c2c1N (configuration not stated) [US20240043440, Example 45]
1.6 | Cn1cncc1-c1cc(-c2nccs2)nc2sc([S+]([O-])C3CCCCC3)c(N)c12 (configuration not stated) [US20240043440, Example 33]
0.82 | CCCC[S+]([O-])c1sc2nc(-c3cccnc3)cc(-c3cccnc3)c2c1N (configuration not stated) [US20240043440, Example 54]
1.1 | CCCC[S+]([O-])c1sc2nc(-c3cccnc3)nc(-c3nccn3C)c2c1N (configuration not stated) [US20240043440, Example 86]
1.2 | CCCC[S+]([O-])c1sc2nc(-c3cccnc3)nc(-c3cncn3C)c2c1N (configuration not stated) [US20240043440, Example 84]
1.2 | CCCC[S+]([O-])c1sc2nc(-c3cncnc3)cc(-c3cnc(C)n3C)c2c1N (configuration not stated) [US20240043440, Example 39]
1.3 | COCCC[S@@+]([O-])c1sc2nc(-c3cccnc3)nc(-c3ccc(F)cc3)c2c1N [US20240043440, Example 87A]
